{"source": "patent US20150224094A1", "about": "“ADMINISTRATION OF ACETYLCHOLINESTERASE INHIBITORS TO MITIGATE NEUROTOXIN-INDUCED PARALYSIS AND RESIDUAL NEUROMUSCULAR BLOCKADE” (priority 2012, published 2015)", "key": {"[1]": {"test_system": "Naja naja (Indian cobra) venom", "test": "Intranasal neostigmine in experimental Naja naja envenomation in mice", "format": "in vivo", "procedure": "After pilot studies to assess the potency of reconstituted N. naja venom, 20 mice (21-28 g) were pseudo-randomized to receive IP injections of N. naja venom (approximately 2.5×LD50 for mice, Total N=20).\nAfter 10 minutes, 15 animals received 5 microliters of 0.5 mg/mL neostigmine by nasal administration. Animals were observed continuously for 12 hours and assessed for signs of toxicity including respiratory distress, loss of spontaneous locomotor activity with the endpoint being death. Surviving animals were euthanized after 12 hours. Comparison of time to euthanasia across groups was performed and represented in Kaplan-Meier curves\nSwiss albino mice were envenomed with cobra toxin (Naja naja) by intraperitoneal injection at doses >2.5×the LD50 and that killed 100% of untreated mice “LD100”. Intranasal neostigmine was given 10 minutes after envenomation to determine if this intervention could delay or treat the envenomation. 10/15 mice recovered completely and were still behaving normally >12 hours after envenoming. 5/15 mice in the treatment group died compared to 5/5 (100%) of the envenomation group. Mice were treated only once, with no attempt to re-treat with intranasal neostigmine."}, "[2]": {"test_system": "mivacurium-induced neuromuscular blockade", "test": "Reversal of experimental mivacurium paralysis in a human by intranasal neostigmine aerosol", "procedure": "Intravenous mivacurium is administered to a subject at concentrations of 5-200 mcg/kg/min to induce a safe, stable, low level neuromuscular block for a medical procedure. After completion of the procedure a total of 4 to 30 mg of neostigmine in divided doses—each dose separated by 15 minutes ([…] a 5% or a 6% solution) is administered intra-nasally and the regression of the block is followed quantitatively using acceleromyography or clinical measures such as the improvement in muscle strength as measured by thumb adduction, handgrip strength, teeth clenching, head raising and/or swallowing.\nNeuromuscular block was quantified by using the train-of-four (TOF) ratio at the left adductor pollicis (AP) muscle measured by acceleromyography and as described previously. When the subject had significant oropharyngeal weakness and met electrophysiological criteria for Level 3 block a single dose of […] IV glycopyrrolate was administered to prevent bradycardia. Five minutes later 6% neostigmine dissolved in sterile water was administered using a primed atomizer (LMA MAD Nasal Device, LMA Corporation North America, San Diego, Calif.). A total dose of 27.6 mg, 0.37 mg/kg with half the volume insufflated in each nostril was given and the subject was left undisturbed for a total period of 10 min (Shaded area, FIG. 2) except for acceleromyographic recording. After the final set of measurements, the mivacurium infusion was terminated and neuromuscular function was allowed to return spontaneously. Emergency equipment and drugs including IV neostigmine and edrophonium (for reversal of mivacurium block) and glycopyrrolate and atropine (for early treatment of neostigmine toxicity) were at the bedside at all times.\nClinical measures of muscle function emphasized those that would be seen in the setting of neurotoxic envenomation that could be readily measured in out-of-hospital settings. The clinical assessments of muscle function were as follows: visual acuity, ease of swallowing, ability to protrude the tongue, diction, and ability to raise the head completely off the bed for more than 5 sec (neck flexion) with a postal scale (WeighMax, Industrial City, Calif., USA) placed under the subjects head to confirm complete elevation and peak respiratory flow measured using a Tru-Zone Peak Flow Meter (Monaghan, Plattsburg, N.Y.). […] The subject was blinded to all clinical and acceleromyographic data as well as to the mivacurium infusion rate and the levels of neuromuscular blockade.\nThe mivacurium infusion was maintained with unchanged infusion rate, enabling the investigators to determine the characteristics of neostigmine effect. Analysis of TOF ratios were made using TOFMON software (Schering-Plough Corporation, Kenilworth, N.J.) and considered stable if the values obtained 10 min apart differed less than 5% and accounting for repeated measures. Student's t-test results were calculated and reported as average values, standard deviation (SD), and 95% confidence intervals (95% CI)."}, "[3]": {"test": "Intra-nasal administration of glycopyrrolate and neostigmine, tolerability in a healthy volunteer", "procedure": "In this experiment, the effect of intra-nasal administration of an mAChR inhibitor (glycopyrrolate) was determined using a healthy volunteer. 5 cc of glycopyrrolate (0.2 mg/mL) in sterile water was instilled in one nostril using an LMA sponge atomizer. […] 5 cc of 0.2 mg/mL glycopyrrolate mixed in DMSO was instilled in the other nostril."}, "[4]": {"test_system": "myasthenic patients", "conditions": "cited from earlier work"}, "[5]": {"test_system": "krait bite (Bungarus sp.)", "test": "Case report: intranasal neostigmine aerosol for residual weakness after suspected krait bite", "format": "in vivo, human", "conditions": "single dose 0.5 cc aqueous 5% neostigmine intranasal aerosol", "description": "A healthy person was sleeping on a mud platform in their village and was awakened by a snake biting their left forearm. Within minutes, they developed headache and throat discomfort. They were transported by their family from the local clinic to the Emergency Department, conscious, but with progressive weakness. On physical examination, they had complete loss of gag reflex and rapidly worsening shortness of breath. There was no fang mark, ecchymosis or local swelling, and there were no other signs of coagulopathy such as bleeding gums or hematuria. They were unable to open their eyes and became unresponsive as emergent intubation was being performed without sedation. Polyvalent anti-snake venom (ASV) was administered concurrently. Based on the pattern of symptoms, lack of coagulopathy, normal renal function and normal bleeding and clotting times as well as lack of physical evidence of snakebite, krait bite (Bungarus sp.) was suspected. Twenty-four hours after ASV therapy and continuous mechanical ventilation, they were awake and alert, but with residual weakness, including profound ptosis, bilateral 6th nerve palsies and inability to lift their neck. […] Intranasal neostigmine was administered every four hours thereafter with IV atropine as prophylaxis against cholinergic toxicity. […]"}, "[6]": {"conditions": "intranasal neostigmine, constant mivacurium infusion"}, "[7]": {"conditions": "3 cc of 1 mg/mL neostigmine into one nostril, after 2nd dose of glycopyrrolate"}}, "note": "Values joined by “and” are separate entries in the source; they are usually repeats but may differ in a detail not shown here. Equal values may be shown once. “Also recorded” adds a separate entry of the source."}
{"smiles": "CN(C)C(=O)Oc1cccc([N+](C)(C)C)c1", "note": "[neostigmine]", "values": [{"measurement": "mice whose lives were prolonged or saved", "setting": "[1]; 5 uL of 0.5 mg/mL IN neostigmine, 2.5× the 100% lethal dose (LD100) of Naja naja venom", "value": "5/5"}, {"measurement": "effect on survival time", "setting": "[1]; 5 uL of 0.5 mg/mL IN neostigmine, of Naja naja", "value": "trended toward prolonging the lives"}, {"measurement": "time to death or euthanasia", "setting": "[1]; IN neostigmine N=15, controls 193 minutes", "value": 553, "unit": "min"}, {"measurement": "condition of surviving animals", "setting": "[1]; IN neostigmine after N. naja venom", "value": "completely normal by 6 hours"}, {"measurement": "mice that died in the treatment group", "setting": "[1]; IN neostigmine, 5/5 died in envenomation group", "value": "5/15"}, {"measurement": "animals surviving / recovered of treated", "setting": "[1]; single dose 5 uL of 0.5 mg/mL IN neostigmine 10 min after IP N. naja venom (approx. 2.5×LD50, 100% lethal in controls), 12 h observation", "value": "10 of 15 and 10/15"}, {"measurement": "survival", "setting": "[1]; single dose IN neostigmine 10 min after IP N. naja venom, N=15", "value": 67, "unit": "%"}, {"measurement": "local tolerability of intranasal spray", "setting": "[2]; 6% neostigmine by atomizer", "value": "no stinging sensation or irritation"}, {"measurement": "Normalized TOF ratios (mean ± SD), adductor pollicis", "setting": "[2]; after intranasal 6% neostigmine 27.6 mg (0.37 mg/kg), constant mivacurium infusion 2.5 mcg/kg/min, pre-neostigmine 0.56", "value": "0.64±0.03"}, {"measurement": "Peak flow of baseline by the termination of the mivacurium infusion", "setting": "[2]; after intranasal neostigmine, 135 min", "value": 95, "unit": "%"}, {"measurement": "peak improvement adductor pollicis TOF ratio", "setting": "[2]; after intranasal neostigmine, constant mivacurium infusion", "value": 0.70}, {"measurement": "time to feeling of facial and lingual muscles rearranging and tightening", "setting": "[2]; after receiving intranasal neostigmine", "value": "≤ 5", "unit": "min"}, {"measurement": "time to full recovery of neck flexion", "setting": "[2]; first test of neck flexion following neostigmine administration", "value": 5, "unit": "min"}, {"measurement": "clinically important muscular deficits / neuromuscular blockade", "setting": "[2]; [6]", "value": "quickly relieved all clinically important muscular deficits; also recorded: antagonized the neuromuscular blockade"}, {"measurement": "time to full recovery of ability to swallow after neostigmine administration", "setting": "[2]; [6]", "value": "≤ 10", "unit": "min"}, {"measurement": "bradycardia and concurrent symptoms", "setting": "[2]; just prior to stopping the mivacurium infusion and after", "value": "asymptomatic bradycardia"}, {"measurement": "Peak Flow, average after neostigmine, of baseline", "setting": "[2]; response to intranasal neostigmine, 72% under stable blockade", "value": 91, "unit": "%"}, {"measurement": "Visual Acuity", "setting": "[2]; response to intranasal neostigmine, >20/200 under stable blockade", "value": "Steady improvement and 20/20"}, {"measurement": "Ease of Swallowing", "setting": "[2]; response to intranasal neostigmine, Difficult under stable blockade", "value": "Easy"}, {"measurement": "Tongue Protrusion", "setting": "[2]; response to intranasal neostigmine, Moderately Difficult under stable blockade", "value": "Easy"}, {"measurement": "Diction", "setting": "[2]; response to intranasal neostigmine, Poor under stable blockade", "value": "Improved"}, {"measurement": "Jaw Ptosis", "setting": "[2]; response to intranasal neostigmine, Present under stable blockade", "value": "None"}, {"measurement": "Neck Flexion (Head Raise >5 s)", "setting": "[2]; response to intranasal neostigmine, Unable under stable blockade", "value": "Easy"}, {"measurement": "signs or symptoms of muscarinic-mediated toxicity", "setting": "[2]; while the mivacurium infusion was running", "value": "no signs or symptoms"}, {"measurement": "effect on heart rate", "setting": "[3]; [7]", "value": "no effect"}, {"measurement": "salivation", "setting": "[3]; [7]", "value": "no increase"}, {"measurement": "clinical effect in myasthenic patients", "setting": "[4]; 6% neostigmine methylsulfate intranasal, doses spaced by 15 minutes, alternating nostrils", "value": "salutary effects usually after the first dose"}, {"measurement": "puffs tolerated without ill effect", "setting": "[4]; intranasal neostigmine at 15 minute intervals", "value": "up to 5 puffs"}, {"measurement": "6th nerve palsies", "setting": "[5]", "value": "almost complete recovery"}, {"measurement": "time to complete resolution of ptosis", "setting": "[5]; 24 h after ASV", "value": "≤ 30", "unit": "min"}]}
{"smiles": "C[N+]1(C)CCC(OC(=O)C(O)(c2ccccc2)C2CCCC2)C1", "note": "(stereo not shown) [glycopyrrolate]", "values": [{"measurement": "reversal of neostigmine-associated bradycardia", "setting": "[2]; IV glycopyrrolate", "value": "easily reversed"}, {"measurement": "effect on heart rate", "setting": "[3]; 5 cc glycopyrrolate 0.2 mg/mL in sterile water, one nostril, LMA sponge atomizer", "value": "no effect"}, {"measurement": "effect on heart rate", "setting": "[3]; 5 cc of 0.2 mg/mL glycopyrrolate mixed in DMSO, other nostril", "value": "no notable effect"}, {"measurement": "effect on nasal membranes", "setting": "[3]; intranasal glycopyrrolate, noted prior to neostigmine", "value": "mild drying"}]}
